“Also recorded” adds a separate entry of the source. One block for each molecule: values may come before it.
What was measured:
recombinant CYP3A4 = assay: Activation by recombinant CYP3A4 (Example G); type: in vitro ADME; conditions: 28.4 at 100 µM, 37°C, NADPH dependent, linear for 30 minutes
Procedure: Activation of 30.1 and 28.4 was evaluated in reactions containing microsomes from baculovirus-infected insect cells co-expressing recombinant CYP3A4 and cytochrome p450 reductase (Panvera Corp., Madison, WI).
Methods: Reaction mixture composition was similar to that described in Example E. Reactions were terminated by addition of methanol to a final concentration of 60%, and products typically analyzed by HPLC with use of a YMC reverse phase C8 column (250 x 4.6 mm). […] The effluent was monitored at 254 nm.

[1] = Hepatic PMEA-diphosphate and plasma PMEA after intravenous dosing (Example P); type: in vivo, rat; conditions: 10 mg/kg PMEA equivalents i.v.
isolated rat hepatocytes [2] = assay: Active drug metabolites formed after prodrug activation in isolated rat hepatocytes (Example K); conditions: for Product concentration nmoles/g cells (PMEApp): time point 4h
Method: Methods: Hepatocytes were prepared and incubated as described in Example I. 28.4 and 30.1 and their respective parent compounds, PMEA and ara-AMP, were dissolved in DMSO or methanol to yield 10 mM stock solutions, and then diluted into the cell suspension to yield a final concentration of 100 µM. At appropriate time points over the course of 2-4 hours, aliquots of the cell suspension were removed and spun through a silicon/mineral oil layer into 10% perchloric acid. The cell extracts in the acid layers were neutralized by the addition of 0.3 volumes of 3M KOH/3M KHCO3, and the extract was then centrifuged, filtered (0.2 micron filter) and loaded onto an anion exchange HPLC column equilibrated with 70% A (10 mM ammonium phosphate pH 3.5, 6% ETOH) and 30% B (1 M ammonium phosphate pH 3.5, 6% ETOH). Ara-ATP and PMEApp were eluted with a gradient to 80% B. Detection was at 254 nm.

[3] = tested on: glucose production in isolated rat hepatocytes; assay: Inhibition of glucose production in rat hepatocytes (Example J); type: cell-based; conditions: 1 hour, lactate 10 mM / pyruvate 1 mM
Procedure: Select prodrugs of FBPase inhibitors were tested for inhibition of glucose production in isolated rat hepatocytes.
After a 10 minute equilibration period, lactate and pyruvate were added to 10 mM and 1 mM concentrations, respectively. Addition of gluconeogenic substrates was immediately followed by that of appropriate concentrations of test compound. After 1 hour, an aliquot (0.25 ml) was removed, transferred to an Eppendorf tube and centrifuged. The supernatant (50 µl) was then assayed for glucose content using a Glucose Oxidase kit (Sigma Chemical Co.) as per the manufacturer's instructions.

[4] = Stability in plasma (Example C); type: in vitro ADME, rat; conditions: 37°C, 5-8 hours, reverse phase HPLC
Method: Methods: Compounds were incubated in plasma at 37°C, and aliqouts removed at appropriate time points over the course of 5-8 hours. The aliquots were extracted with 1.5 volumes of methanol and clarified by centrifugation. Supernatants were then evaporated to dryness and the residues reconstituted with 100 µL of isotonic saline and then analyzed by reverse phase HPLC.

[5] = Liver ara-ATP and plasma/urine ara-hypoxanthine after intravenous dosing (Example O); type: in vivo, rat
Procedure: The temporal profile of ara-hypoxanthine and ara-ATP generation following intravenous administration of 30.1 and free ara-AMP was compared in the rat.
Method: 30.1 and ara-AMP (Sigma) were administered to normal, fasted rats intravenously (in saline) via tail vein catheters. At appropriate time points following drug a administration, animals were lightly anesthetized with halothane. The peritoneal cavity was then opened and a blood sample was obtained from the abdominal vena cava and the liver freeze-clamped and excised.
The blood samples were heparinized and plasma was prepared. Plasma samples (100 µL) were mixed with 4 N perchloric acid (40 µL), vortexed, and then clarified by centrifugation. The supernatants were analyzed for ara-hypoxanthine by HPLC with use of a Beckman Ultrasphere ODS column (4.6 x 150 mm). The column was eluted with 100 mM acetic acid at a flow rate of 1.0 mL/min. The eluent was monitored by UV absorbance at 254 nm.
Livers were immediately homogenized in 3 volumes of 10% perchloric acid (w/w), and the extracts clarified by centrifugation at 2500 x g (5 minutes). The resulting supernatants were removed and neutralized with 0.3 volumes of 3M KOH/ 3M KHCO3. The neutralized liver extracts were then spun in an Eppendorf microfuge at 10,000 rpm (20 minutes, 4°C). The supernatants were analyzed for ara-ATP content by reverse phase HPLC (HP1050) using a Whatman Partisphere SA column (4.6 x 125 mm). A gradient from 0.3M ammonium phosphate buffer pH 3.5 to 0.8M ammonium phosphate pH 3.5 was run (1 ml/minute flow rate).
Renal excretion of araH following i.v. administration of 30.1 or ara-AMP was determined as described in Example Q.

[6] = i.v., over 2.5 minutes; cited from earlier work
[7] = intravenous administration to human patients; cited from earlier work
Rat liver microsomes = conditions: linear over a 5 hour reaction period, equimolar products
Procedure: 1.1 was evaluated for microsome-catalyzed conversion to parent compound 2-{5-[9-(2-Phenylethyl)-8-adeninyl]} furanylphosphonic acid and phenol, an expected byproduct of the reaction.
Methods: Rat liver microsomes were prepared as described in Example I. Reaction conditions, sample processing, and HPLC analysis were as described in Example D. Phenol was identified by HPLC by its retention time and spectral characteristics relative to an authentic standard.

[8] = tested on: microsomal fraction of rat liver; assay: Activation by rat liver microsomes (Example D); type: in vitro ADME; conditions: 100 µM 7.1, 37°C; in the presence, but not in the absence of, NADP+; rate linearly dependent on microsomal protein
Procedure: The pellet was resuspended in homogenization buffer and recentrifuged.
Reactions were carried out at 37°C.
Reactions are monitored spectrophotometrically at 340 nm.

[9] = tested on: microsomal fraction of human liver; assay: Activation by human liver microsomes (Example E); type: in vitro ADME; conditions: 250 µM prodrug, 37°C, NADPH-generating system
Procedure: 7.1, 1.3, and 30.1 were tested for conversion to their respective parent compounds by the microsomal fraction of human liver.

isolated rat hepatocytes [10] = assay: Activation to parent compound in isolated rat hepatocytes (Example I); type: cell-based; conditions: 100 µM prodrug, peak within 15 minutes of addition
From the text: An ODS column was used for analysis. […] Detection was at 310 nm.

[11] = in rodents; cited from earlier work

SMILES: Nc1ncnc2c1ncn2CCOCP1(=O)OCCC(c2ccncc2)O1 (centres unmarked) [Compound 28.4, 9-[2-(1-(4-Pyridyl)-1,3-propylphosphonomethoxy)ethyl]adenine]
rate of formation of PMEA (recombinant CYP3A4): 3.1 ± 0.1 nmoles/ min/ nmole CYP3A4
PMEA-diphosphate in liver [1]: readily detectable levels
Plasma PMEA levels relative to bisPOM-PMEA [1]: greater than 10 fold lower
Product concentration nmoles/g cells (PMEApp) (isolated rat hepatocytes [2]; Dose 100 µM): 169 nmoles/g cells

SMILES: CC(=O)OCC1COP(=O)(c2ccc(-c3nc4c(N)ncnc4n3CC(C)(C)C)o2)OC1 (centres unmarked) [Compound 7.5, 6-Amino-9-neopentyl-8-{5-[2'-(acetoxymethyl)-propan-1',3'-yl]phosphono-2-furanyl}purine]
IC50 [3]: 13 µM

metabolism / degradation in fresh rat plasma [4]: not degraded
SMILES: CC(C)(C)Cn1c(-c2ccc(P3(=O)OC4CC(O)CC(C4)O3)o2)nc2c(N)ncnc21 (centres unmarked) [Compound 1.2, 6-Amino-8-(5'-hydroxyl-1',3'-cyclohexyl)phosphonofuranyl-9-neopentyl purine]

persistence of ara-hypoxanthine in plasma ([5]; ara-AMP i.v. at equivalent doses): 8 h
ara-hypoxanthine (araH) in plasma ([5]; i.v., 30.1 at 10 and 3 mg/kg, ara-AMP at equivalent doses): µmolar levels
plasma half-life of free ara-AMP relative to 30.1 ([5]; judged by inability to detect the compound in plasma): considerably shorter
Product concentration nmoles/g cells (ara-ATP) (isolated rat hepatocytes [2]; Dose 100 µM, time point 2h): 212±0.6 nmoles/g cells
SMILES: Nc1ncnc2c1ncn2[C@@H]1O[C@H](COP(=O)(O)O)[C@@H](O)[C@@H]1O [araAMP, reference compound]
drop of plasma ara-AMP levels [6]: greater than 90%
ara-AMP in plasma [7]: not detected in plasma

SMILES: CC(C)(C)C(=O)OCOP(=O)(COCCn1cnc2c(N)ncnc21)OCOC(=O)C(C)(C)C [bisPOM-PMEA, reference compound]
PMEA-diphosphate in liver [1]: readily detectable levels

SMILES: Nc1ncnc2c1nc(-c1ccc(P3(=O)OC4CC(O)CC(C4)O3)o1)n2CCc1ccccc1 (centres unmarked) [Compound 1.1, 6-Amino-8-(5'-hydroxyl-1',3'-cyclohexyl)phosphonofuranyl-9-phenethyl purine]
metabolism / degradation in fresh rat plasma [4]: not degraded; also recorded: no evidence of metabolism
IC50 [3]: 77 µM
rate of generation of 2-{5-[9-(2-Phenylethyl)-8-adeninyl]}furanylphosphonic acid and phenol (Rat liver microsomes): 15 pmoles /mg microsomal protein/minute

conversion to parent compound [8]: converted to parent compound
rate of formation of parent compound [9]: 0.85 nmoles/mg microsomal protein/minute
peak intrahepatocyte levels of 6-Chloro-1-isobutyl-2-(2-Phosphono-5-furanyl)benzimidazole (isolated rat hepatocytes [10]): approximately 700 nmoles/g cells
SMILES: CC(C)Cn1c(-c2ccc(P3(=O)OCC(CO)CO3)o2)nc2ccc(Cl)cc21 (centres unmarked) [Compound 7.1, 6-Chloro-1-isobutyl-2-{5-[2'-(hydroxymethyl)-propan-1',3'-yl]phosphono-2-furanyl}benzimidazole]
inhibition at 100 µM ([3]; Rattus norvegicus, Hepatocyte, read-out: % inhibition @ 100 µM, 100 µM): 65%
IC50 ([3]; Rattus norvegicus, Hepatocyte): 48 µM

SMILES: CC(C)(C)C(=O)OCOP(=O)(OCOC(=O)C(C)(C)C)C(CCCc1cccc(Oc2ccccc2)c1)S(=O)(=O)O (centres unmarked) [BMS 188494]
oral bioavailability [11]: < 2%

SMILES: Nc1ncnc2c1ncn2CCOCP(=O)(O)O [PMEA, 9-(2-phosphonylmethoxyethyl) adenine, reference compound]
Product concentration nmoles/g cells (PMEApp) (isolated rat hepatocytes [2]; Dose 250 µM): 120 nmoles/g cells
